Patent US8193200B2, “Antagonists of A2B adenosine receptors for treatment of inflammatory bowel disease” (University of Virginia Patent Foundation, priority 2007, dated 2012)

Assays:
[1] = tested on: T84 cells; test: Flagellin-induced IL-8 secretion in T84 cells (ELISA); format: cell-based
[2] = tested on: IL-6 and KC secretion; test: IL-6 and KC ELISA in colon organ culture supernatants, IL-10-/- model; format: in vivo, mouse
Method: In the DSS-model proinflammatory cytokines were measured by real time PCR. Total RNA was extracted from DSS treated, DSS+ATL-801 and control colonic tissue using the TRizol reagent. After quantification, a reverse transcription (RT) reaction was performed with 2 μg of each sample and oligo-dT primer, using the SuperScript First strand synthesis system for RT-PCR (Invitrogen, CA). The real-time iCycler sequence detection system (Bio-Rad) was used for the real-time RT-PCR. Briefly, 3 ng of reverse transcribed cDNA, 500 nM of gene-specific primers and the iQ SYBR Green Supermix (Biorad, Hercules, Calif.) were amplified at 50° C. for 2 min and 95° C. for 10 min, followed by 40 cycles of 95° C. for 15 s and 60° C. for 1 min. The 36B4 expression levels were used as reference, and fold-induction was calculated using a standard curve. For graphical representation of quantitative PCR data, raw cycle threshold values (Ct values) obtained for treated mice were deducted from the Ct value obtained for internal 36B4 transcript levels, using the Ct method as follows: ΔΔCT=(Ct Target−Ct 36B4)treatment−(Ct Target−Ct 36B4) no treatment, and the final data were derived from 2^−ΔΔCT. Primers used: IL-6 sense 5′-ACAAGTCGGAGGCTTAATTACACAT-3′ (SEQ ID NO:1) antisense 5′-TTGCCATTGCACAACTCTTTTC-3′ (SEQ ID NO:2), MIP-2 sense 5AGT GAA CTG CGC TGT CAA TGC-3′ (SEQ ID NO:3) antisense 5′ AGGCAAACTTTTTGACCGCC 3′ (SEQ ID NO:4). In IL-10−/− model proinflammatory cytokines were measured by ELISA in organ cultures. Colon organ cultures were prepared from IL-10^−/− mice with and with out ATL-801 along with piroxicam. Colons were dissected from mice and flushed with cold PBS to remove fecal matter. Each colon was cut in to 1 cm length and washed in HBSS with pencillin/streptomycin and cultured in serum free RPMI-1640 supplemented with penicillin and streptomycin. […] Supernatants were harvested after 24 hours, centrifuged and stored at −80° C. before IL-6 and keratinocyte derived chemokine, KC levels were measured by ELISA. […] IL-8 was measured in the supernatants by ELISA.

## CCCn1c(=O)n(C2CC2)c(=O)c2[nH]c(-c3ccc(N(CC)C(=O)c4cccnc4)nc3)nc21 [ATL-801]
[1]; ATL-801 100 μM 30 min, then flagellin 100 ng/ml 5 hours
  inhibition of flagellin-induced IL-8 secretion: 60%
[1]; ATL-801 100 μM, flagellin 100 ng/ml 5 h, control 206±18.5, flagellin 1126
  IL-8 in media, Flagellin+ATL-801: 769 ± 13.6 pg/mL
[1]; ATL-801 100 μM, no flagellin, control 206±18.5
  IL-8 in media, ATL-801 alone: 101 ± 34.6 pg/mL
[2]; ATL-801 alone (data not shown)
  effect of ATL-801 alone on IL-6 or IL-8 levels: no effect
[2]; IL-10-/- mice, piroxicam + ATL-801, 24 h culture, piroxicam alone 1.9±0.3, untreated 0.7±0.1
  IL-6 levels in colon culture supernatant: 0.46 ± 0.1 ng/mL
[2]; IL-10-/- mice, piroxicam+ATL-801, piroxicam alone 5.6±0.6
  KC secretion in colon culture supernatant: 3.7 ± 0.8 ng/mL
